Test system: Engineered strains of E. coli
Format: cell-based
[1] = after solvent exposure, vs positive control

SMILES: C1=CCCCC1 [cyclohexene]
- expression of acid resistance genes (gad, adi families): downregulated
- expression of chaperone proteins groLS, spy, and dnaJK: highly upregulated
- expression of dihydroxyacetone kinase genes dhaKLM: upregulated
- expression of galactitol metabolism genes gatABD: upregulated
- expression of heat shock proteins and chaperones hslJORUV: increased
- expression of ibpAB and clpAB (protein protection and repair): increased
- expression of marABC (multiple antibiotic resistance): upregulated
- expression of nitrate reductase genes narGHJKP: upregulated
- expression of phage shock genes pspABCDE: highly upregulated
- change in expression of gene adiA [1]: −1.87 ± 0.86
- change in expression of gene adiC [1]: −1.64 ± 1.02
- change in expression of gene adiY [1]: −2.84 ± 0.66
- change in expression of gene bhsA [1]: 4.18 ± 0.60
- change in expression of gene bssR [1]: 2.27 ± 0.44
- change in expression of gene bssS [1]: 6.69 ± 0.84
- change in expression of gene clpA [1]: 4.12 ± 0.63
- change in expression of gene clpB [1]: 6.17 ± 0.69
- change in expression of gene clpP [1]: 2.72 ± .59
- change in expression of gene coaA [1]: −1.36 ± 0.88
- change in expression of gene coaD [1]: 1.34 ± 0.90
- change in expression of gene cspA [1]: −6.07 ± 0.58
- change in expression of gene cspB [1]: −4.10 ± 1.31
- change in expression of gene cspC [1]: −3.65 ± 0.94
- change in expression of gene cspD [1]: 2.88 ± 0.57
- change in expression of gene cspE [1]: −0.06 ± 0.63
- change in expression of gene cspF [1]: −2.37 ± 1.04
- change in expression of gene dhaK [1]: 3.72 ± 0.59
- change in expression of gene dhaL [1]: 2.40 ± 0.62
- change in expression of gene dnaJ [1]: 6.64 ± 0.69
- change in expression of gene dnaK [1]: 5.96 ± 0.66
- change in expression of gene fabA [1]: −1.13 ± 0.76
- change in expression of gene fabB [1]: 1.01 ± 0.66
- change in expression of gene fabD [1]: −1.64 ± 0.53
- change in expression of gene flgA [1]: −0.73 ± 1.53
- change in expression of gene flgB [1]: −3.31 ± 1.51
- change in expression of gene flgC [1]: −4.46 ± 1.94
- change in expression of gene flgD [1]: −3.72 ± 1.87
- change in expression of gene flgE [1]: −2.82 ± 1.18
- change in expression of gene flgF [1]: −2.88 ± 1.58
- change in expression of gene flgG [1]: −2.77 ± 1.48
- change in expression of gene flgH [1]: −2.14 ± 1.71
- change in expression of gene gabD [1]: 0.11 ± 1.32
- change in expression of gene gabP [1]: 1.19 ± 1.28
- change in expression of gene gabT [1]: 0.31 ± 1.28
- change in expression of gene gadA [1]: −0.52 ± 0.68
- change in expression of gene gadB [1]: 0.17 ± 0.80
- change in expression of gene gadC [1]: 1.28 ± 0.80
- change in expression of gene gadE [1]: −3.51 ± 0.61
- change in expression of gene gadW [1]: −2.17 ± 0.95
- change in expression of gene gadX [1]: −3.69 ± 0.57
- change in expression of gene gadY [1]: −4.01 ± 0.80
- change in expression of gene glpA [1]: 7.06 ± 0.87
- change in expression of gene glpB [1]: 4.64 ± 0.63
- change in expression of gene glpC [1]: 5.02 ± 0.80
- change in expression of gene groL [1]: 4.57 ± 0.57
- change in expression of gene groS [1]: 4.63 ± 0.50
- change in expression of gene hchA [1]: 2.06 ± 0.60
- change in expression of gene hslJ [1]: 1.41 ± 0.66
- change in expression of gene hslO [1]: 4.56 ± 0.64
- change in expression of gene hslR [1]: 4.80 ± 0.65
- change in expression of gene hslU [1]: 4.95 ± 0.55
- change in expression of gene hslV [1]: 4.81 ± 0.61
- change in expression of gene ibpA [1]: 9.90 ± 1.21
- change in expression of gene ibpB [1]: 10.95 ± 1.50
- change in expression of gene lhgO [1]: 1.38 ± 1.64
- change in expression of gene lipA [1]: 0.42 ± 0.73
- change in expression of gene lipB [1]: 0.61 ± 1.03
- change in expression of gene narG [1]: 4.96 ± 0.65
- change in expression of gene narH [1]: 4.45 ± 0.61
- change in expression of gene narI [1]: 3.11 ± 0.92
- change in expression of gene narJ [1]: 4.11 ± 0.68
- change in expression of gene narK [1]: 3.31 ± 0.84
- change in expression of gene potA [1]: −2.79 ± 0.81
- change in expression of gene potB [1]: −1.05 ± 1.29
- change in expression of gene potC [1]: −0.55 ± 1.19
- change in expression of gene pspA [1]: 10.50 ± 0.55
- change in expression of gene pspB [1]: 9.33 ± 0.68
- change in expression of gene rpoA [1]: 0.17 ± 0.44
- change in expression of gene rpoB [1]: 0.79 ± 0.40
- change in expression of gene rpoC [1]: 1.15 ± 0.39
- change in expression of gene rpoD [1]: 4.75 ± 0.70
- change in expression of gene rpoE [1]: 1.44 ± 0.62
- change in expression of gene rpoH [1]: 1.79 ± 0.52
- change in expression of gene rpoN [1]: −1.54 ± 0.49
- change in expression of gene rpoS [1]: 0.22 ± 0.47
- change in expression of gene rpoZ [1]: −0.02 ± 0.53
- change in expression of gene spy [1]: 3.95 ± 0.87
- change in expression of gene tatA [1]: −1.95 ± 0.52
- change in expression of gene tatB [1]: −1.59 ± 0.59
- change in expression of gene tatC [1]: −1.25 ± 1.09
- change in expression of gene tatD [1]: −1.56 ± 1.13
- change in expression of gene tatE [1]: −0.97 ± 0.64
- number of genes with significant changes in expression (vs control, Bon Ferroni corrected p-value<0.05): 530 genes

Source: patent US20230167467A1, “METHODS AND COMPOSITIONS FOR THE PRODUCTION OF ISOBUTENE” (University of Alaska Anchorage, priority 2020, published 2023)
